Reference: patent EP3412661A1, “COCRYSTALS OF VORTIOXETINE HYDROBROMIDE AND RESORCINOL” (Enantia, S.L., priority 2017, dated 2018)
Values after ≈ are worked out from the molar mass of the structure shown. Structures can show the parent of a compound that is named as a salt. Values belong to the molecule of their own block, whether it stands above or below them.

Columns and labels:
[1] = cited from earlier work
[2] = according to WO2007/144005A1 / US9562024B2; hydrobromide; cited from earlier work
[3] = cited from earlier work; remark: listed apart in the source
[4] = Comparative kinetic solubility study in water at room temperature (HPLC vortioxetine peak area, pH and XRPD of filtered solid); conditions: for Analysis 1 XRPD / Analysis 2 XRPD / Analysis 1 pH / Analysis 2 pH: Form β study; for Analysis 1 XRPD / Analysis 2 XRPD: filtered solid; for Analysis 1 pH / Analysis 2 pH: mother liquor
Method: A comparative kinetic solubility study of the cocrystal of vortioxetine·HBr and resorcinol 2:1 Form I and with vortioxetine·HBr Form β was performed in water at room temperature (RT). The relative solubility of vortioxetine was obtained by comparison of the vortioxetine peak area in the HPLC analyses of the mother liquors.
The solubility tests were performed in a minireactor HME-R, provided with a 250 mL vessel, a temperature sensor and mechanical stirring.
1 g of each material was stirred in water (150 ml, […]) at 350 rpm. Aliquots of ca. 5 ml of suspension were filtered in a sintered glass funnel (#4) at different times: 30, 60, 180 min and 24 h. After filtration, the pH of the mother liquor was determined. 1 mL of mother liquor was measured with a pipette and diluted to 10 mL with water in a volumetric flask. A portion of this solution was filtered again through a 0.20 µm nylon filter and directly analyzed by HPLC (2 injections for each sample). The filtered solids were analyzed by XRPD, without a drying step, to determine the crystalline phase corresponding to the measured solubility.
The HPLC conditions were the following:
The kinetic solubility of cocrystal vortioxetine hydrobromide and resorcinol Form I and vortioxetine·HBr Form β at room temperature in water was determined in duplicate.

[5] = Stability test under accelerated stability conditions (ICH), crystalline phase checked by XRPD; type: physicochemical; conditions: 40 °C / 75±5% RH
Method: The samples were analyzed by XRPD to observe if the crystalline phase was stable (see Table 2).

[6] = compared with vortioxetine hydrobromide Form β (example 140 of US9562024B2); cited from earlier work
[7] = water, room temperature, 30 min
[8] = water, room temperature, 60 min
[9] = water, room temperature, 180 min

SMILES: Cc1ccc(Sc2ccccc2N2CCNCC2)c(C)c1 [Form α of vortioxetine hydrobromide, vortioxetine hydrobromide]
solubilities in water ([1]; Examples 4b and 4d of WO2007/144005A1, listed as vortioxetine hydrobromide Form α, hydrobromide): 2 mg/mL
stability [2]: unstable and is transformed to the Form β of vortioxetine hydrobromide at room temperature

SMILES: Cc1ccc(Sc2ccccc2N2CCNCC2)c(C)c1 [Form γ of vortioxetine hydrobromide, vortioxetine hydrobromide]
stability [2]: very unstable
hygroscopicity ([3]; under low-humidity conditions): 2.0%

SMILES: Cc1ccc(Sc2ccccc2N2CCNCC2)c(C)c1 [Vortioxetine, 1-[2-(2,4-dimethyl-phenylsulfanyl)-phenyl]piperazine]
solubility in water ([1]; 25 °C): 7.8 µg/mL (≈ 26.1 µM)

maximum of solubility afforded after [4]: three hours
spring and parachute effect [4]: not seen
Analysis 1 Average Form β (Vortioxetine area) ([4]; 30 min): 564
Analysis 2 Average Form β (Vortioxetine area) ([4]; 30 min): 427
Average Vortioxetine area ([4]; 30 min): 495
Analysis 1 Average Form β (Vortioxetine area) ([4]; 60 min): 550
Analysis 2 Average Form β (Vortioxetine area) ([4]; 60 min): 537
Average Vortioxetine area ([4]; 60 min): 544
Analysis 1 Average Form β (Vortioxetine area) ([4]; 180 min): 579
Analysis 2 Average Form β (Vortioxetine area) ([4]; 180 min): 561
Average Vortioxetine area ([4]; 180 min): 570
Analysis 1 Average Form β (Vortioxetine area) ([4]; 24 h): 572
Analysis 2 Average Form β (Vortioxetine area) ([4]; 24 h): 581
Average Vortioxetine area ([4]; 24 h): 576
Analysis 1 XRPD [4, 7]: Form β
Analysis 2 XRPD [4, 7]: Form β
Analysis 1 XRPD [4, 8]: Form β
Analysis 2 XRPD [4, 8]: Form β
Analysis 1 XRPD [4, 9]: Form β
Analysis 2 XRPD [4, 9]: Form β
Analysis 1 XRPD ([4]; water, room temperature, 24 h): Form β
Analysis 2 XRPD ([4]; water, room temperature, 24 h): Form β
Analysis 1 pH [4, 7]: 4.9
Analysis 2 pH [4, 7]: 5.3
Analysis 1 pH [4, 8]: 4.8
Analysis 2 pH [4, 8]: 5.1
Analysis 1 pH [4, 9]: 4.8
Analysis 2 pH [4, 9]: 5.1
Analysis 1 pH ([4]; water, room temperature, 24 h): 5.6
Analysis 2 pH ([4]; water, room temperature, 24 h): 5.5
crystalline form after 24 hours in water dispersion ([4]; water, room temperature, 24 hours, XRPD): unchanged
pH ([4]; water, room temperature, remaining constant over the study): 4-5
XRPD ([5]; 7 days): stable
XRPD ([5]; 14 days): stable
XRPD ([5]; 21 days): stable
XRPD ([5]; 28 days, hydrobromide): stable
XRPD ([5]; 28 days, listed as Vortioxetine•HBr Form β, hydrobromide): remained stable
SMILES: Cc1ccc(Sc2ccccc2N2CCNCC2)c(C)c1 [Vortioxetine·HBr Form β, vortioxetine hydrobromide]

XRPD ([5]; 7 days): stable
XRPD ([5]; 14 days): stable
XRPD ([5]; 21 days): stable
XRPD ([5]; 28 days): stable
XRPD ([5]; 28 days, listed as cocrystal of vortioxetine hydrobromide and resorcinol Form I): remained stable
XRPD ([5]; 28 days, listed as cocrystal of vortioxetine·HBr and resorcinol Form I): remained stable
SMILES: Br.Br.Cc1ccc(Sc2ccccc2N2CCNCC2)c(C)c1.Cc1ccc(Sc2ccccc2N2CCNCC2)c(C)c1.Oc1cccc(O)c1 [cocrystal Form I, cocrystal of vortioxetine hydrobromide and resorcinol]

SMILES: Cc1ccc(Sc2ccccc2N2CCNCC2)c(C)c1 [ethyl acetate solvate of vortioxetine hydrobromide]
stability [2]: unstable

SMILES: Cc1ccc(Sc2ccccc2N2CCNCC2)c(C)c1 [hemihydrate of vortioxetine hydrobromide, vortioxetine hydrobromide]
stability [2]: unstable
hygroscopicity (in words) ([3]; according to WO2007/144005A1 / US9562024B2): hygroscopic

SMILES: Cc1ccc(Sc2ccccc2N2CCNCC2)c(C)c1 [vortioxetine hemihydrobromide]
kinetic solubility [6]: much lower
